Molecules are shown by their SMILES. Structures can show the parent of a compound that is named as a salt.

Broadly, the melting point is the temperature, or range, at which the solid turns liquid. Turning to `CCOC(=O)CN1CCN(C(=O)CN2Cc3cc(C(=N)N)ccc3C2=O)CC1` (as salt: salt) [Example 66, (4-{2-[5-Carbamimidoyl-1-oxo-1,3-dihydro-isoindol-2-yl]-acetyl}-piperazine-1-yl)-acetic acid ethyl ester], the melting point was 211 to 212 °C.
Turning to `CCOC(=O)COC1CCN(C(=O)CN2Cc3cc(C(=N)NO)ccc3C2=O)CC1` [Example 68, (1-{2-[5-(N-Hydroxycarbamimidoyl)-1-oxo-1,3-dihydro-isoindol-2-yl]-acetyl}-piperidin-4-yloxy)-acetic acid ethyl ester], the melting point is 204 to 206 °C.
Next, `CC(C)COC(=O)COc1ccc(C(=O)CN2Cc3cc(C(=N)NS(C)(=O)=O)ccc3C2=O)cc1` [Example 14, (4-{2-[5-(Imino-methanesulfonylamino-methyl)-1-oxo-1,3-dihydro-isoindol-2-yl]-acetyl}-phenoxy)-acetic acid isobutyl ester]: 177 to 178 °C; `CCOC(=O)COc1ccc(C(=O)CN2Cc3cc(C(=N)NO)ccc3C2=O)cc1SCC` (hydrate or solvate) [Example 34, (2-Ethylsulfanyl-4-{2-[5-(N-hydroxycarbamimidoyl)-1-oxo-1,3-dihydro-isoindol-2-yl]-acetyl}-phenoxy)-acetic acid ethyl ester]: 190 to 191 °C.
For `CC(C)COC(=O)COc1ccc(C(=O)CN2Cc3cc(C(=N)N)ccc3C2=O)cc1OCC(=O)OCC(C)C` (as salt: hydroiodid) [Example 24, (4-{2-[5-Carbamimidoyl-1-oxo-1,3-dihydro-isoindol-2-yl]-acetyl}-2-isobutoxycarbonylmethoxy-phenoxy)acetic acid isobutyl ester] the value was 95 to 96 °C; for `N=C(N)c1ccc2c(c1)CN(CC(=O)c1ccc(OCC(=O)O)cc1O)C2=O` (as salt: trifluoroacetate) [Example 44, (4-{2-[5-Carbamimidoyl-1-oxo-1,3-dihydro-isoindol-2-yl]-acetyl}-3-hydroxy-phenoxy)-acetic acid], 262 °C (dec.).
For `CCOC(=O)COc1ccc(C(=O)CN2Cc3cc(C(=N)NO)ccc3C2=O)c(O)c1Cl` (hydrate or solvate) [Example 54, (2-Chloro-3-hydroxy-4-{2-[5-(N-hydroxycarbamimidoyl)-1-oxo-1,3-dihydro-isoindol-2-yl]-acetyl}-phenoxy)-acetic acid ethyl ester] the value was 214 to 215 °C; for `COC(=O)NC(=N)c1ccc2c(c1)CN(CC(=O)c1ccc(OCC(=O)OC(C)C)cc1)C2=O` [Example 6, (4-{2-[5-(Imino-methoxycarbonylamino-methyl)-1-oxo-1,3-dihydro-isoindol-2-yl]-acetyl}-phenoxy)-acetic acid isopropyl ester], 183 to 184 °C; for `CCOC(=O)COc1ccc(C(=O)CN2Cc3cc(C(=N)NO)ccc3C2=O)cc1OCC(=O)OCC` [Example 21, (2-Ethoxycarbonylmethoxy-4-{2-[5-(N-hydroxycarbamimidoyl)-1-oxo-1,3-dihydro-isoindol-2-yl]-acetyl}-phenoxy)-acetic acid ethyl ester], 163 to 164 °C.
Take `CCOC(=O)COc1ccc(C(=O)CN2Cc3cc(C(=N)NO)ccc3C2=O)cc1` (hydrate or solvate) [Example 4, (4-{2-[5-(N-Hydroxycarbamimidoyl)-1-oxo-1,3-dihydro-isoindol-2-yl]-acetyl}-phenoxy)-acetic acid ethyl ester]: the melting point was in the range of 175 to 178 °C.
For `CCOC(=O)COc1ccc(C(=O)CN2Cc3cc(-c4noc(C)n4)ccc3C2=O)c(OC(C)=O)c1` [Example 80, (3-Acetoxy-4-{2-[5-(5-methyl-[1,2,4]oxadiazol-3-yl)-1-oxo-1,3-dihydro-isoindol-2-yl]acetyl}-phenoxy)-acetic acid ethyl ester] the value was 162 to 164 °C.
For `CC(C)OC(=O)COc1ccc(C(=O)CN2Cc3cc(C(=N)N)ccc3C2=O)cc1` (hydrate or solvate) [Example 5, (4-{2-[5-Carbamimidoyl-1-oxo-1,3-dihydro-isoindol-2-yl]-acetyl}-phenoxy)-acetic acid isopropyl ester] the value was 162 °C; for `CCOC(=O)COc1cc(O)c(C(=O)CN2Cc3cc(C(=N)NO)ccc3C2=O)cc1C(C)C` [Example 51, (5-Hydroxy-4-{2-[5-(N-hydroxycarbamimidoyl)-1-oxo-1,3-dihydro-isoindol-2-yl]-acetyl}-2-isopropyl-phenoxy)-acetic acid ethyl ester], 207 to 209 °C; for `C=CCOc1cc(OCC(=O)OCC)ccc1C(=O)CN1Cc2cc(C(=N)NO)ccc2C1=O` (hydrate or solvate) [Example 83, (3-Allyloxy-4-{2-[5-(N-hydroxycarbamimidoyl)-1-oxo-1,3-dihydro-isoindol-2-yl]-acetyl}-phenoxy)-acetic acid ethyl ester], 182 to 183 °C.
Compound `N=C(NO)c1ccc2c(c1)CN(CC(=O)c1ccc(OCC(=O)OCc3ccccc3)cc1O)C2=O` [Example 43, (3-Hydroxy-4-{2-[5-(N-hydroxycarbamimidoyl)-1-oxo-1,3-dihydro-isoindol-2-yl]-acetyl}-phenoxy)-acetic acid benzyl ester] displayed a melting point of 183 to 184 °C.
Next, `CC(C)COC(=O)COc1ccc(C(=O)CN2Cc3cc(C(=N)NC(=O)OCc4ccccc4)ccc3C2=O)cc1` [Example 13, (4-{2-[5-(Benzyloxycarbonylamino-imino-methyl)-1-oxo-1,3-dihydro-isoindol-2-yl]-acetyl}-phenoxy)-acetic acid isobutyl ester]: 139 to 140 °C; `CCOC(=O)COc1ccc(C(=O)CN2Cc3cc(C(=N)N)ccc3C2=O)cc1Cl` (as salt: salt) [Example 30, (4-{2-[5-Carbamimidoyl-1-oxo-1,3-dihydro-isoindol-2-yl]-acetyl}-2-chloro-phenoxy)-acetic acid ethyl ester]: 172 to 173 °C; `CCOC(=O)C(CCNC(=O)OCc1ccccc1)Oc1ccc(C(=O)CN2Cc3cc(C(=N)N)ccc3C2=O)cc1` (centres unmarked) (as salt: salt) [Example 27, 4-Benzyloxycarbonylamino-2-(4-{2-[5-carbamimidoyl-1-oxo-1,3-dihydro-isoindol-2-yl]-acetyl}-phenoxy)-butyric acid ethyl ester]: 164 to 165 °C.
For `COC(=O)CSc1ccc(C(=O)CN2Cc3cc(C(=N)NO)ccc3C2=O)cc1` [Example 29, (4-{2-[5-(N-Hydroxycarbamimidoyl)-1-oxo-1,3-dihydro-isoindol-2-yl]-acetyl}-phenylsulfanyl)-acetic acid methyl ester] the value was 193 to 194 °C.
In turn, `CCOC(=O)C(CCNC(=O)OCc1ccccc1)Oc1ccc(C(=O)CN2Cc3cc(C(=N)NO)ccc3C2=O)cc1` (centres unmarked) [Example 28, 4-Benzyloxycarbonylamino-2-(4-{2-[5-(N-hydroxycarbamimidoyl)-1-oxo-1,3-dihydro-isoindol-2-yl]-acetyl}-phenoxy)-butyric acid ethyl ester] registered a melting point of 174 to 175 °C.
Next, `CCOC(=O)COc1ccc(C(=O)CN2Cc3cc(C(=N)N)ccc3C2=O)c(OCC)c1` [Example 76, (4-{2-[5-carbamimidoyl-1-oxo-1,3-dihydro-isoindol-2-yl]-acetyl}-3-ethoxy-phenoxy)-acetic acid ethyl ester]: 202 to 203 °C.
For `COC(=O)COc1ccc(C(=O)CN2Cc3cc(C(=N)NO)ccc3C2=O)cc1` (hydrate or solvate) [Example 2, (4-{2-[5-(N-Hydroxycarbamimidoyl)-1-oxo-1,3-dihydro-isoindol-2-yl]-acetyl}-phenoxy)-acetic acid methyl ester] the value was 175 to 176 °C; for `CCOC(=O)COc1ccc(C(=O)CN2Cc3cc(C(=N)N)ccc3C2=O)c(O)c1` (as salt: salt) [Example 41, (4-{2-[5-Carbamimidoyl-1-oxo-1,3-dihydro-isoindol-2-yl]-acetyl}-3-hydroxy-phenoxy)-acetic acid ethyl ester], 195 to 196 °C.
Turning to `CCOC(=O)COc1c(SCC)cc(C(=O)CN2Cc3cc(C(=N)NO)ccc3C2=O)cc1SCC` [Example 37, (2,6-Bis-ethylsulfanyl-4-{2-[5-(N-hydroxycarbamimidoyl)-1-oxo-1,3-dihydro-isoindol-2-yl]-acetyl}-phenoxy)-acetic acid ethyl ester], the melting point fell in the range of 183 to 184 °C.
Next, `COC(=O)COc1ccc(C(=O)CN2Cc3cc(C(=N)N)ccc3C2=O)cc1` (as salt: salt) [Example 1, (4-{2-[5-Carbamimidoyl-1-oxo-1,3-dihydro-isoindol-2-yl]-acetyl}-phenoxy)-acetic acid methyl ester]: 181 to 182 °C; `CCOC(=O)COc1ccc(C(=O)CN2Cc3cc(C(=N)NO)ccc3C2=O)cc1N(CC(=O)OCC)S(C)(=O)=O` [Example 40, (2-{Ethoxycarbonylmethyl-methanesulfonyl-amino}-4-{2-[5-(N-hydroxycarbamimidoyl)-1-oxo-1,3-dihydro-isoindol-2-yl]-acetyl}-phenoxy)-acetic acid ethyl ester]: 165 to 167 °C; `CC(C)COC(=O)COc1ccc(C(=O)CN2Cc3cc(C(=N)NO)ccc3C2=O)cc1` [Example 15, (4-{2-[5-(N-Hydroxycarbamimidoyl)-1-oxo-1,3-dihydro-isoindol-2-yl]-acetyl}-phenoxy)-acetic acid isobutyl ester]: 153 to 154 °C.
For `CCOC(=O)COc1ccc(C(=O)CN2Cc3cc(C(=N)NC(=O)OCC(C)C)ccc3C2=O)cc1N(CC(=O)OCC)S(C)(=O)=O` (hydrate or solvate) [Example 39, (2-{Ethoxycarbonylmethyl-methanesulfonyl-amino}-4-{2-[5-(imino-isobutoxycarbonylamino-methyl)-1-oxo-1,3-dihydro-isoindol-2-yl]-acetyl}-phenoxy)-acetic acid ethyl ester] the value was 80 to 82 °C; for `COC(=O)NC(=N)c1ccc2c(c1)CN(CC(=O)c1ccc(OCC(=O)OCC(C)C)cc1)C2=O` [Example 11, (4-{2-[5-(Imino-methoxycarbonylamino-methyl)-1-oxo-1,3-dihydro-isoindol-2-yl]-acetyl}-phenoxy)-acetic acid isobutyl ester], 162 to 163 °C.
